Calls of active or inactive are those of the source. The rule behind the calls is not given here.
Legend:
[1] = biological target: Mast/stem cell growth factor receptor Kit (Homo sapiens) (UniProt P10721); test: Inhibition of DNA-tagged human KIT assessed as percent of control at 50000 nM by qPCR analysis relative to control; set-up: scale not given: the % may be the effect or the level left
[2] = biological target: Fibroblast growth factor receptor 4 (Homo sapiens) (UniProt P22455); test: Inhibition of DNA-tagged human FGFR4 assessed as percent of control at 50000 nM by qPCR analysis relative to control; set-up: scale not given: the % may be the effect or the level left
Chain of Fibroblast growth factor receptor 4 (Homo sapiens) (P22455 22-802 limits assumed): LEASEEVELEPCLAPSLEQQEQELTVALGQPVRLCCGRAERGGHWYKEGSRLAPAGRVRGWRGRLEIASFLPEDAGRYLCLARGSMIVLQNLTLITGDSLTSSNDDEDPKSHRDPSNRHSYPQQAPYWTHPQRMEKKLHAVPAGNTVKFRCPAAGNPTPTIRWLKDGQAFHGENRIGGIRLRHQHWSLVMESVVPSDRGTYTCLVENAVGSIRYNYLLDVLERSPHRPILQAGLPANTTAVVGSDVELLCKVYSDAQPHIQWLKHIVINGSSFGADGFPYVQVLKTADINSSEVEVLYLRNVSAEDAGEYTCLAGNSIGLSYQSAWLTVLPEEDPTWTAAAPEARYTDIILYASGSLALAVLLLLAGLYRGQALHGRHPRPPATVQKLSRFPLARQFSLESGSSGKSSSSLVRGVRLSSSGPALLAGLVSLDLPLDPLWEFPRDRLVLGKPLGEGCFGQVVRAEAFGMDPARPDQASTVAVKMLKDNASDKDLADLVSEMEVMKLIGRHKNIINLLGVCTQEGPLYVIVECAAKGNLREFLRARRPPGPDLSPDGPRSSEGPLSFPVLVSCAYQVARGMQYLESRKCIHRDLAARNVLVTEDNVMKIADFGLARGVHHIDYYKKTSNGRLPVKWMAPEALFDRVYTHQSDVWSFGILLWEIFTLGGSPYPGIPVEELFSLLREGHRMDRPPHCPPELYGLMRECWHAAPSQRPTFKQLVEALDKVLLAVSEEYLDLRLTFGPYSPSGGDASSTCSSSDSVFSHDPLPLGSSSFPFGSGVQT

[3] = biological target: Mitogen-activated protein kinase 6 (Homo sapiens) (UniProt Q16659); test: Inhibition of DNA-tagged human ERK3 assessed as percent of control at 50000 nM by qPCR analysis relative to control; set-up: scale not given: the % may be the effect or the level left
Chain of Mitogen-activated protein kinase 6 (Homo sapiens) (Q16659 whole entry): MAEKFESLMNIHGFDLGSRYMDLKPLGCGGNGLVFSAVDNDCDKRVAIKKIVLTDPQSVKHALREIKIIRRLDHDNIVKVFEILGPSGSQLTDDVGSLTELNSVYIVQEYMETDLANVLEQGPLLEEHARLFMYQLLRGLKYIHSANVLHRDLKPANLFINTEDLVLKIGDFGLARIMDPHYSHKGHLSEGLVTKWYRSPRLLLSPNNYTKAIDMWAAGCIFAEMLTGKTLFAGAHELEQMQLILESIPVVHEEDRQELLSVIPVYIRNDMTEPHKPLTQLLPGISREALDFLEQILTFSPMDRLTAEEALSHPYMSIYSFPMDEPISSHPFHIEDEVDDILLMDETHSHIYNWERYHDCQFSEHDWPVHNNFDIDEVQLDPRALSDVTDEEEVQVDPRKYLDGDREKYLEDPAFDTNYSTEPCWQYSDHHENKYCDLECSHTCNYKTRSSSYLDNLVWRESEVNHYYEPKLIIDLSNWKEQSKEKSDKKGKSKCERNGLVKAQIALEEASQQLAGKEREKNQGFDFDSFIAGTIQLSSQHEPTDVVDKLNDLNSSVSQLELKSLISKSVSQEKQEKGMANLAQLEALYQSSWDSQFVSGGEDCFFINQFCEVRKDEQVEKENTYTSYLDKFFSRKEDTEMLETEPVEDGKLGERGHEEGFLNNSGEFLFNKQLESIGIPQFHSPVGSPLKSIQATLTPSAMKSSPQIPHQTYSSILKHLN

[4] = test system: Epidermal growth factor receptor (Homo sapiens), P00533 [L858R]; test: Inhibition of DNA-tagged human EGFR L858R mutant assessed as percent of control at 50000 nM by qPCR analysis relative to control; set-up: scale not given: the % may be the effect or the level left
[5] = biological target: Dual specificity tyrosine-phosphorylation-regulated kinase 1A (Homo sapiens) (UniProt Q13627); test: Inhibition of DNA-tagged human DYRK1A assessed as percent of control at 50000 nM by qPCR analysis relative to control; set-up: scale not given: the % may be the effect or the level left
[6] = biological target: Dual specificity protein kinase CLK4 (Homo sapiens) (UniProt Q9HAZ1); test: Inhibition of DNA-tagged human CLK4 assessed as percent of control at 50000 nM by qPCR analysis relative to control; set-up: scale not given: the % may be the effect or the level left
[7] = biological target: Cyclin-dependent kinase-like 1 (Homo sapiens) (UniProt Q00532); test: Inhibition of DNA-tagged human CDKL1 assessed as percent of control at 50000 nM by qPCR analysis relative to control; set-up: scale not given: the % may be the effect or the level left
Chain of Cyclin-dependent kinase-like 1 (Homo sapiens) (Q00532 whole entry): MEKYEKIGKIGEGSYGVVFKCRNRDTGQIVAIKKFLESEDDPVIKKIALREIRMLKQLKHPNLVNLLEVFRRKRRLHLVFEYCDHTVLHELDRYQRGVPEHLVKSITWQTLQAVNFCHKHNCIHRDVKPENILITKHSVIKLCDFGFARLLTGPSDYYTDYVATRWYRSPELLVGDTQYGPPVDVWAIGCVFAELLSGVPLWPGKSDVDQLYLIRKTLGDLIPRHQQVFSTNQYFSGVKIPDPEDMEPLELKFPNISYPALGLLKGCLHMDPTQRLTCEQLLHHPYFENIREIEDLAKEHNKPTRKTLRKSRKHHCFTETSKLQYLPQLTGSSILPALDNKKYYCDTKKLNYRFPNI

[8] = biological target: NUAK family SNF1-like kinase 1 (Homo sapiens) (UniProt O60285); test: Inhibition of DNA-tagged human ARK5 assessed as percent of control at 50000 nM by qPCR analysis relative to control; set-up: scale not given: the % may be the effect or the level left
[9] = biological target: 5'-AMP-activated protein kinase catalytic subunit alpha-1 (Homo sapiens) (UniProt Q13131); test: Inhibition of DNA-tagged human AMPK-alpha1 assessed as percent of control at 50000 nM by qPCR analysis relative to control; set-up: scale not given: the % may be the effect or the level left
[10] = test system: Tyrosine-protein kinase ABL1 (Homo sapiens), P00519 [Y253F]; test: Inhibition of DNA-tagged phosphorylated human ABL1 Y253F mutant assessed as percent of control at 50000 nM by qPCR analysis relative to control; set-up: scale not given: the % may be the effect or the level left
[11] = test system: Tyrosine-protein kinase ABL1 (Homo sapiens), P00519 [F317L]; test: Inhibition of DNA-tagged non-phosphorylated human ABL1 F317L mutant assessed as percent of control at 50000 nM by qPCR analysis relative to control; set-up: scale not given: the % may be the effect or the level left
[12] = test system: Tyrosine-protein kinase ABL1 (Homo sapiens), P00519 [E255K]; test: Inhibition of DNA-tagged phosphorylated human ABL1 E255K mutant assessed as percent of control at 50000 nM by qPCR analysis relative to control; set-up: scale not given: the % may be the effect or the level left
MV4-11 = test: Cytotoxicity against human MV4-11 cells at 0.1-100 uM assessed as decrease in cell viability relative to control; assay type: functional, cell-based
[13] = biological target: Mitogen-activated protein kinase kinase kinase kinase 5 (Homo sapiens) (UniProt Q9Y4K4); test: Inhibition of DNA-tagged human MAP4K5 assessed as percent of control at 50000 nM by qPCR analysis relative to control; set-up: scale not given: the % may be the effect or the level left
[14] = biological target: Serine/threonine-protein kinase MARK1 (Homo sapiens) (UniProt Q9P0L2); test: Inhibition of DNA-tagged human MARK1 assessed as percent of control at 50000 nM by qPCR analysis relative to control; set-up: scale not given: the % may be the effect or the level left
[15] = biological target: Serine/threonine-protein kinase MARK2 (Homo sapiens) (UniProt Q7KZI7); test: Inhibition of DNA-tagged human MARK2 assessed as percent of control at 50000 nM by qPCR analysis relative to control; set-up: scale not given: the % may be the effect or the level left
[16] = biological target: Maternal embryonic leucine zipper kinase (Homo sapiens) (UniProt Q14680); test: Inhibition of DNA-tagged human MELK assessed as percent of control at 50000 nM by qPCR analysis relative to control; set-up: scale not given: the % may be the effect or the level left
[17] = biological target: Dual specificity mitogen-activated protein kinase kinase 7 (Homo sapiens) (UniProt O14733); test: Inhibition of DNA-tagged human MKK7 assessed as percent of control at 50000 nM by qPCR analysis relative to control; set-up: scale not given: the % may be the effect or the level left
[18] = biological target: Serine/threonine-protein kinase MRCK beta (Homo sapiens) (UniProt Q9Y5S2); test: Inhibition of DNA-tagged human MRCKB assessed as percent of control at 50000 nM by qPCR analysis relative to control; set-up: scale not given: the % may be the effect or the level left
Chain of Serine/threonine-protein kinase MRCK beta (Homo sapiens) (Q9Y5S2 whole entry): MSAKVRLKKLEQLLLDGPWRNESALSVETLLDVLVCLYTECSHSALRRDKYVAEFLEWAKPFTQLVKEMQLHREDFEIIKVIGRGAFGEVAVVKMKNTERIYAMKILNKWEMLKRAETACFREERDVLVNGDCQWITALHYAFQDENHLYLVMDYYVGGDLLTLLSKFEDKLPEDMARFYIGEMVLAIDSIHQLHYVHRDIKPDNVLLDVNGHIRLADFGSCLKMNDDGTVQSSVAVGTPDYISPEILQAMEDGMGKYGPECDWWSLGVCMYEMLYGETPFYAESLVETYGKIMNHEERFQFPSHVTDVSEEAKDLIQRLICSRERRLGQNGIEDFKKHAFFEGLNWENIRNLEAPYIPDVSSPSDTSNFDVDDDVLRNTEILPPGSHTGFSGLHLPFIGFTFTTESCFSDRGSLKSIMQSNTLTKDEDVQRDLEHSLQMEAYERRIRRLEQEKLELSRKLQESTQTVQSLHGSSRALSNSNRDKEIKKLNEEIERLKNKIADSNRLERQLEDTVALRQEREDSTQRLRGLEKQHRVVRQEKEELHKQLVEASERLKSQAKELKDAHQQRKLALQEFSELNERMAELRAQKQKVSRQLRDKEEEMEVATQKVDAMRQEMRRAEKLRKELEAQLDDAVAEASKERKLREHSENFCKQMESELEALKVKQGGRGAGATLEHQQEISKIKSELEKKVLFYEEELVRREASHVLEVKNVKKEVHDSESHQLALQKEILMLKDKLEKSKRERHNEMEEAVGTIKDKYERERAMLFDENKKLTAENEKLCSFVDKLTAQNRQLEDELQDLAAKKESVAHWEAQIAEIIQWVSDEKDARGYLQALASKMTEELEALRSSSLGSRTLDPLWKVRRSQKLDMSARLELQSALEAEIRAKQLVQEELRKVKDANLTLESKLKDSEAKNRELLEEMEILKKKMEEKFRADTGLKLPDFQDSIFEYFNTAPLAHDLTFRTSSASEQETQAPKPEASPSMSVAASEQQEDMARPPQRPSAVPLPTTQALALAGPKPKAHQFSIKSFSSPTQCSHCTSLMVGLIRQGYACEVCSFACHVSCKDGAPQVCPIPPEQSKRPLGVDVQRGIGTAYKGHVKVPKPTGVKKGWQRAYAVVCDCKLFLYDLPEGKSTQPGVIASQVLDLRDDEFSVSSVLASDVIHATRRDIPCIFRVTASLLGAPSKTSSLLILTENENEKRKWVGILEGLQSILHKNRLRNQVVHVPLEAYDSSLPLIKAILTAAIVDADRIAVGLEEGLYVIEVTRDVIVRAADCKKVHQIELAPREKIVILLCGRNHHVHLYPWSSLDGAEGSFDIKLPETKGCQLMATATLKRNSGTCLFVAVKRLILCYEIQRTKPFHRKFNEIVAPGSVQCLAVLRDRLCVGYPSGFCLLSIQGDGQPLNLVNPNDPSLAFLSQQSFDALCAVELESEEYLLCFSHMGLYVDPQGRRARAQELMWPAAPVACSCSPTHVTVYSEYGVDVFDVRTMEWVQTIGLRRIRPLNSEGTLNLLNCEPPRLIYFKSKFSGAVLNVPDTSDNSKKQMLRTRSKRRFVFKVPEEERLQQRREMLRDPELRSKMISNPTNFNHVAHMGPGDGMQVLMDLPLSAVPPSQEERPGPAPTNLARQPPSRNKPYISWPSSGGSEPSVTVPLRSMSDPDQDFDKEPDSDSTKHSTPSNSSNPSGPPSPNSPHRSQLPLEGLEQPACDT

[19] = biological target: Serine/threonine-protein kinase 3 (Homo sapiens) (UniProt Q13188); test: Inhibition of DNA-tagged human MST2 assessed as percent of control at 50000 nM by qPCR analysis relative to control; set-up: scale not given: the % may be the effect or the level left
[20] = biological target: Myosin light chain kinase, smooth muscle (Homo sapiens) (UniProt Q15746); test: Inhibition of DNA-tagged human MYLK assessed as percent of control at 50000 nM by qPCR analysis relative to control; set-up: scale not given: the % may be the effect or the level left
[21] = biological target: Serine/threonine-protein kinase Nek3 (Homo sapiens) (UniProt P51956); test: Inhibition of DNA-tagged human NEK3 assessed as percent of control at 50000 nM by qPCR analysis relative to control; set-up: scale not given: the % may be the effect or the level left
Chain of Serine/threonine-protein kinase Nek3 (Homo sapiens) (P51956 whole entry): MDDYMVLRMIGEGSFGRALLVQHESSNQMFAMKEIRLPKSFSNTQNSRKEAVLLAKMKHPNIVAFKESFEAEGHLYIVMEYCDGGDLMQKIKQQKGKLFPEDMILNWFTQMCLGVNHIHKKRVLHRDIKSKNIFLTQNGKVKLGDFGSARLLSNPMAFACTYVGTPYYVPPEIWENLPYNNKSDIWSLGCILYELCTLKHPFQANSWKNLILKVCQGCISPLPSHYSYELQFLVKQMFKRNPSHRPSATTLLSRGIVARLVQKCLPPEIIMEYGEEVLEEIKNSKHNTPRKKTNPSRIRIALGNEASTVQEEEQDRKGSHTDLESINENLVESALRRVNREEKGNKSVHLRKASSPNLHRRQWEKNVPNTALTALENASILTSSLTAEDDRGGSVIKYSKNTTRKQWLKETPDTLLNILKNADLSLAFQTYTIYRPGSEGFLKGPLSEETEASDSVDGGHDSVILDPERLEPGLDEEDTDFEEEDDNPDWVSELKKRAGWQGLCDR

[22] = biological target: Calcium-dependent protein kinase 1 (Plasmodium falciparum) (UniProt P62344); test: Inhibition of DNA-tagged Plasmodium falciparum CDPK1 assessed as percent of control at 50000 nM by qPCR analysis relative to control; set-up: scale not given: the % may be the effect or the level left
[23] = biological target: Phosphatidylinositol 4,5-bisphosphate 3-kinase catalytic subunit delta isoform (Homo sapiens) (UniProt O00329); test: Inhibition of DNA-tagged human PIK3CD assessed as percent of control at 50000 nM by qPCR analysis relative to control; set-up: scale not given: the % may be the effect or the level left
[24] = biological target: Phosphatidylinositol 5-phosphate 4-kinase type-2 beta (Homo sapiens) (UniProt P78356); test: Inhibition of DNA-tagged human PIP5K2B assessed as percent of control at 50000 nM by qPCR analysis relative to control; set-up: scale not given: the % may be the effect or the level left
[25] = biological target: Serine/threonine-protein kinase N1 (Homo sapiens) (UniProt Q16512); test: Inhibition of DNA-tagged human PKN1 assessed as percent of control at 50000 nM by qPCR analysis relative to control; set-up: scale not given: the % may be the effect or the level left
[26] = biological target: cAMP-dependent protein kinase catalytic subunit PRKX (Homo sapiens) (UniProt P51817); test: Inhibition of DNA-tagged human PRKX assessed as percent of control at 50000 nM by qPCR analysis relative to control; set-up: scale not given: the % may be the effect or the level left
[27] = biological target: Ribosomal protein S6 kinase alpha-4 (Homo sapiens) (UniProt O75676); test: Inhibition of DNA-tagged human N-terminal RPS6KA4 kinase domain assessed as percent of control at 50000 nM by qPCR analysis relative to control; set-up: scale not given: the % may be the effect or the level left
[28] = biological target: Serine/threonine-protein kinase TAO3 (Homo sapiens) (UniProt Q9H2K8); test: Inhibition of DNA-tagged human TAOK3 assessed as percent of control at 50000 nM by qPCR analysis relative to control; set-up: scale not given: the % may be the effect or the level left
Chain of Serine/threonine-protein kinase TAO3 (Homo sapiens) (Q9H2K8 whole entry): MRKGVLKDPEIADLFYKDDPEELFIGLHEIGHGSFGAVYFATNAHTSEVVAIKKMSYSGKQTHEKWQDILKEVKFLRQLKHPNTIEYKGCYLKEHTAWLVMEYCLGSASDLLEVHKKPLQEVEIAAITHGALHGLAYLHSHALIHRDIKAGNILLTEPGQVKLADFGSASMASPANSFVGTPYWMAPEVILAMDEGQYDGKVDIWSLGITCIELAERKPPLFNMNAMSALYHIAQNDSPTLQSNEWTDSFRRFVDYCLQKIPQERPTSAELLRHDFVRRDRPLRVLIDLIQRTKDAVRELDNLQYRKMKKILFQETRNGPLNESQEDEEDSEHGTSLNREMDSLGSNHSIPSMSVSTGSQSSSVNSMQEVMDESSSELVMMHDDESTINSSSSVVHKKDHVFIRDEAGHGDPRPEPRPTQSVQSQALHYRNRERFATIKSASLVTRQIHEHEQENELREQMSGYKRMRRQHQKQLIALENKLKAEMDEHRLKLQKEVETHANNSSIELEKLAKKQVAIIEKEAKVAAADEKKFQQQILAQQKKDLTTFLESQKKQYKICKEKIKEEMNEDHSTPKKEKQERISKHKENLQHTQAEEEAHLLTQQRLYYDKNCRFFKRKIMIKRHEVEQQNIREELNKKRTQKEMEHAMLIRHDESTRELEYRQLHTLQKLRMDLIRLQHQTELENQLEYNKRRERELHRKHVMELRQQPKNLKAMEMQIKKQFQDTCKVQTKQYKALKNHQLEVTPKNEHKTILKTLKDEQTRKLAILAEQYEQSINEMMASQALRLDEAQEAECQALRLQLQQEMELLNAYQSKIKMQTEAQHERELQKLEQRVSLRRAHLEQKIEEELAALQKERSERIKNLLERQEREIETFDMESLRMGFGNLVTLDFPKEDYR

Compound `CN1C(=O)/C(=C2/C(=O)Nc3ccccc32)c2ccccc21` has an Activity [1] of 94%, an Activity [2] of 100% and an Activity [3] of 100%. It also gave an Activity [4] of 89%, an Activity [5] of 100% and an Activity [6] of 100%. For the same compound, the Activity [7] was 79%, the Activity [8] was 85% and the Activity [9] was 100%. It also gave an Activity [10] of 100%, an Activity [11] of 100% and an Activity [12] of 100%. For the same compound, the Activity (MV4-11) was “Active”, the Activity [13] was 100% and the Activity [14] was 92%. The Activity [15] was 75%, the Activity [16] was 83% and the Activity [17] was 75%. The Activity [18] was 83%, the Activity [19] was 99% and the Activity [20] was 82%. For the same compound, the Activity [21] was 92%, the Activity [22] was 87% and the Activity [23] was 95%. For the same compound, the Activity [24] was 100%, the Activity [25] was 100% and the Activity [26] was 100%. It also gave an Activity [27] of 82% and an Activity [28] of 85%.

Reference: ChEMBL document CHEMBL4804284
